Drawing on patent US20260297085A1, “1 H-PYRROLO[2,3-B]PYRIDIN-4-YL]-2-OXOPYRROLIDINE-3-CARBONITRILE DERIVATIVES AS TYROSINE KINASE 2 (TYK2) INHIBITORS FOR THE TREATMENT OF INFLAMMATORY DISEASES” (BIOGEN MA INC., priority 2023, published 2026), this text covers IC50 for 17 molecules.

Conditions in all cases: JH1 kinase domain, ADP-Glo
In general terms: In ADP-Glo the light output rises with the ADP produced.

For test [1], the target named is T1, human TYK2 kinase domain (JH1) (Homo sapiens, UniProt P29597).
T1 construct: recombinantly generated catalytic kinase (also known as JH1) domain of human JAK1, JAK2, JAK3 and TYK2
T1 sequence (P29597 897-1176 limits assumed): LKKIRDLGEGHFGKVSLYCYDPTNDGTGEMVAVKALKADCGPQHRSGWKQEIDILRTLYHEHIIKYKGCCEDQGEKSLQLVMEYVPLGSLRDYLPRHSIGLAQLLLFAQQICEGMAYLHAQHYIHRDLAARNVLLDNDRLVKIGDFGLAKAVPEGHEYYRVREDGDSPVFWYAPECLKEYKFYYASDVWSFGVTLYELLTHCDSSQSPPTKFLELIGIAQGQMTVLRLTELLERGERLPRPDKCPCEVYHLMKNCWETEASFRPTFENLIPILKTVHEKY
Description: JH1 biochemical assay for TYK2 (ADP-Glo kinase assay, recombinant JH1 catalytic domain, JAK3-974 peptide, 10 μM ATP). The procedure:
(§1) Compounds of the disclosure were assessed for their ability to inhibit TYK2, JAK1, JAK2, and JAK3 activity. The inhibitory properties of the compounds of the disclosure described herein can be evidenced by testing in any one of the following protocols.
(§2) The kinase activity of recombinantly generated catalytic kinase (also known as JH1) domain of human JAK1, JAK2, JAK3 and TYK2 were evaluated in a plate-based assay using the ADP-Glo™ Kinase Assay platform. Specifically, 4 nM of recombinant JAK1 kinase domain is used to phosphorylate 50 μM of a JAK3-342 (sequence ALVDGYFRLTT) peptide in the presence of 35 μM ATP. Catalytic activities of recombinant JAK2, JAK3 and TYK2 kinase domain (0.2, 0.3 and 2 nM, respectively) are evaluated by the phosphorylation status of the JAK3-974 (50 μM; sequence LPLDKDYYVVR) peptide with the addition of ATP (15, 4 and 10 μM, respectively). The reactions proceed for 100 minutes and the catalytic activity is quantified by first depleting the unused ATP, converting the hydrolyzed ADP into ATP to generate luminescence in a luciferase reaction; which is the basis of the ADP-Glo platform. Compounds are tested at either 10 μM or 1 μM top concentration, 11 points of 3-fold dilution. The data is normalized and the percent activity versus log concentration of compound is fitted with a 4-parameter logistic model to generate a curve and an IC50 value.

The target in test [2] is T2, human JAK3 kinase domain (JH1) (Homo sapiens, UniProt P52333).
T2 construct: recombinantly generated catalytic kinase (also known as JH1) domain of human JAK1, JAK2, JAK3 and TYK2
T2 sequence (P52333 822-1111 limits assumed): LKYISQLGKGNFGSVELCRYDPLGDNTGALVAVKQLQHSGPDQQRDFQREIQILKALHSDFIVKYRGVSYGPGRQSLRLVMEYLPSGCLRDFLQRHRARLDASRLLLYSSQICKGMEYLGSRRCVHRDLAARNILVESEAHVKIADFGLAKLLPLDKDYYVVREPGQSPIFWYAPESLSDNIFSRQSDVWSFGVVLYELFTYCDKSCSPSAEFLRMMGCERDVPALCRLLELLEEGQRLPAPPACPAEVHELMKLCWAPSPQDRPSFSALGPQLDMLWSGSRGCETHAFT
Description: JH1 biochemical assay for JAK3 (ADP-Glo kinase assay, recombinant JH1 catalytic domain, JAK3-974 peptide, 4 μM ATP). How it is done:
as §1, §2

Test [3] addresses T3, human JAK2 kinase domain (JH1) (Homo sapiens, UniProt O60674).
T3 construct: recombinantly generated catalytic kinase (also known as JH1) domain of human JAK1, JAK2, JAK3 and TYK2
Description: JH1 biochemical assay for JAK2 (ADP-Glo kinase assay, recombinant JH1 catalytic domain, JAK3-974 peptide, 15 μM ATP). The procedure:
as §1, §2

The target of test [4] is T4, human JAK1 kinase domain (JH1) (Homo sapiens, UniProt P23458).
T4 construct: recombinantly generated catalytic kinase (also known as JH1) domain of human JAK1, JAK2, JAK3 and TYK2
T4 sequence (P23458 875-1153 limits assumed): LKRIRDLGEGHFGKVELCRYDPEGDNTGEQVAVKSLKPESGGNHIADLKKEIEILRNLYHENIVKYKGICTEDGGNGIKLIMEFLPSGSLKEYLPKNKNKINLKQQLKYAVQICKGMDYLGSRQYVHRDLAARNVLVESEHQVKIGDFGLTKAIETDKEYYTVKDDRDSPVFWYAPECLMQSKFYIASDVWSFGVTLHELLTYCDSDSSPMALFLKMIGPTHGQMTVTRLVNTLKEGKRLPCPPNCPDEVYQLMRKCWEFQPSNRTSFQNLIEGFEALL
Description: JH1 biochemical assay for JAK1 (ADP-Glo kinase assay, recombinant JH1 catalytic domain, JAK3-342 peptide, 35 μM ATP). How it is done: as §1, §2

Where a name gives a salt, the structure may show the parent alone.

T3 sequence (O60674 849-1124 limits assumed): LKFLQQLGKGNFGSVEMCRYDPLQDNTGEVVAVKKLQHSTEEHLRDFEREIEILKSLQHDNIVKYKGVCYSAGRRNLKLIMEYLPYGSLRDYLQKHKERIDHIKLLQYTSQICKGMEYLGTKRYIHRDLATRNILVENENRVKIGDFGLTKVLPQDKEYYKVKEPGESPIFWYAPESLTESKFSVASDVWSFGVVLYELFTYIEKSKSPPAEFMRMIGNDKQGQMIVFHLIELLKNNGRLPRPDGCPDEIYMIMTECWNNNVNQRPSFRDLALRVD

Usually IC50 stands for the point on the concentration scale where inhibition reaches its midpoint. For `COc1cncc(-c2cc3c(N4C[C@@H](C)[C@@](C#N)(C5CC5)C4=O)ccnn3c2)c1` [Example 82, (3R,4S)-3-cyclopropyl-1-(6-(5-methoxypyridin-3-yl)pyrrolo[1,2-b]pyridazin-4-yl)-4-methyl-2-oxopyrrolidine-3-carbonitrile], the IC50 in test [1] is 20 to 50 nM; in test [2], greater than 10000 nM; in test [3], greater than 10000 nM; in test [4], greater than 10000 nM.

`COc1ncc(-c2cc3c(N4C[C@@H](C)[C@@](C#N)(C5CC5)C4=O)ccnn3c2)cc1C#N` [Example 85, 5-(4-((3R,4S)-3-cyano-3-cyclopropyl-4-methyl-2-oxopyrrolidin-1-yl)pyrrolo[1,2-b]pyridazin-6-yl)-2-methoxynicotinonitrile]: the IC50 is 20 to 50 nM in test [1], 1000 to 5000 nM in test [2], 1000 to 5000 nM in test [3] and 1000 to 5000 nM in test [4].

Consider `C[C@@H]1CN(c2ccnn3cc(-c4cncc(Cl)c4)cc23)C(=O)[C@]1(C#N)C1CC1` [Example 87, (3R,4S)-1-(6-(5-chloropyridin-3-yl)pyrrolo[1,2-b]pyridazin-4-yl)-3-cyclopropyl-4-methyl-2-oxopyrrolidine-3-carbonitrile], for which the 50% inhibitory concentration (IC50) in test [1] is 20 to 50 nM; in test [2], greater than 10000 nM; in test [3], greater than 10000 nM; in test [4], 5000 to 10000 nM.

In the case of `C[C@@H]1CN(c2ccnn3cc(-c4cncn4C)cc23)C(=O)[C@]1(C#N)C1CC1` [Example 89, (3R,4S)-3-cyclopropyl-4-methyl-1-(6-(1-methyl-1H-imidazol-5-yl)pyrrolo[1,2-b]pyridazin-4-yl)-2-oxopyrrolidine-3-carbonitrile], the 50% inhibitory concentration (IC50) in test [1] lay in the range of 20 to 50 nM; in test [2], 1000 to 5000 nM; in test [3] it was 1000 to 5000 nM; in test [4], 1000 to 5000 nM.

`C[C@@H]1CN(c2ccnn3cc(-c4cnc(N(C)C)nc4)cc23)C(=O)[C@]1(C#N)C1CC1` [Example 91, (3R,4S)-3-cyclopropyl-1-(6-(2-(dimethylamino)pyrimidin-5-yl)pyrrolo[1,2-b]pyridazin-4-yl)-4-methyl-2-oxopyrrolidine-3-carbonitrile]: the IC50 fell in the range of 20 to 50 nM in test [1], 1000 to 5000 nM in test [2], 1000 to 5000 nM in test [3] and 100 to 1000 nM in test [4].

Regarding `C[C@@H]1CN(c2ccnn3cc(-c4cncnc4)cc23)C(=O)[C@]1(C#N)C1CC1` [Example 92, (3R,4S)-3-cyclopropyl-4-methyl-2-oxo-1-(6-(pyrimidin-5-yl)pyrrolo[1,2-b]pyridazin-4-yl)pyrrolidine-3-carbonitrile], the IC50 is 50 to 100 nM in test [1], 1000 to 5000 nM in test [2], 5000 to 10000 nM in test [3] and 1000 to 5000 nM in test [4].

For the molecule `COc1cc(-c2cc3c(N4C[C@@H](C)[C@@](C#N)(C5CC5)C4=O)ccnn3c2)c(F)cn1` [Example 94, (3R,4S)-3-cyclopropyl-1-(6-(5-fluoro-2-methoxypyridin-4-yl)pyrrolo[1,2-b]pyridazin-4-yl)-4-methyl-2-oxopyrrolidine-3-carbonitrile], the IC50 is 20 to 50 nM in test [1], greater than 10000 nM in test [2], greater than 10000 nM in test [3] and 1000 to 5000 nM in test [4].

As for `C[C@@H]1CN(c2ccnn3cc(-c4ccc(N(C)C(=O)OC(C)(C)C)nc4)cc23)C(=O)[C@]1(C#N)C1CC1` [Example 95, tert-butyl (5-(4-((3R,4S)-3-cyano-3-cyclopropyl-4-methyl-2-oxopyrrolidin-1-yl)pyrrolo[1,2-b]pyridazin-6-yl)pyridin-2-yl)(methyl)carbamate], the IC50 in test [1] was 5 to 20 nM; in test [2], 100 to 1000 nM; in test [3], 100 to 1000 nM; in test [4], 100 to 1000 nM.

In the case of `COc1cc(-c2cc3c(N4C[C@@H](C)[C@@](C#N)(C5CC5)C4=O)ccnn3c2)c(OC)nn1` [Example 98, (3R,4S)-3-cyclopropyl-1-(6-(3,6-dimethoxypyridazin-4-yl)pyrrolo[1,2-b]pyridazin-4-yl)-4-methyl-2-oxopyrrolidine-3-carbonitrile], the half-inhibitory concentration (IC50) in test [1] is 50 to 100 nM; in test [2], 5000 to 10000 nM; in test [3], 1000 to 5000 nM; in test [4] it was 1000 to 5000 nM.

Regarding `C[C@@H]1CN(c2ccnn3cc(-c4cnn(C)n4)cc23)C(=O)[C@]1(C#N)C1CC1` [Example 99, (3R,4S)-3-cyclopropyl-4-methyl-1-(6-(2-methyl-2H-1,2,3-triazol-4-yl)pyrrolo[1,2-b]pyridazin-4-yl)-2-oxopyrrolidine-3-carbonitrile trifluoroacetate], the 50% inhibitory concentration (IC50) in test [1] is 20 to 50 nM; in test [2], 100 to 1000 nM; in test [3], 1000 to 5000 nM; in test [4] it was 100 to 1000 nM.

For `C[C@@H]1CN(c2ccnn3cc(-c4cnc5n4CCCC5)cc23)C(=O)[C@]1(C#N)C1CC1` [Example 100, (3R,4S)-3-cyclopropyl-4-methyl-2-oxo-1-(6-(5,6,7,8-tetrahydroimidazo[1,2-a]pyridin-3-yl)pyrrolo[1,2-b]pyridazin-4-yl)pyrrolidine-3-carbonitrile trifluoroacetate], the half-maximal inhibitory concentration (IC50) in test [1] lay within 50 to 100 nM; in test [2], 1000 to 5000 nM; in test [3] it was 1000 to 5000 nM; in test [4], 1000 to 5000 nM.

For the molecule `C[C@@H]1CN(c2ccnn3cc(-c4nnc5n4CCCC5)cc23)C(=O)[C@]1(C#N)C1CC1` [Example 105, (3R,4S)-3-cyclopropyl-4-methyl-2-oxo-1-(6-(5,6,7,8-tetrahydro-[1,2,4]triazolo[4,3-a]pyridin-3-yl)pyrrolo[1,2-b]pyridazin-4-yl)pyrrolidine-3-carbonitrile trifluoroacetate], the half-inhibitory concentration (IC50) in test [1] was greater than 100 nM; in test [2], 5000 to 10000 nM; in test [3], 1000 to 5000 nM; in test [4], greater than 10000 nM.

For the molecule `C[C@@H]1CN(c2ccnn3cc(-c4cc(C(F)(F)F)nn4C)cc23)C(=O)[C@]1(C#N)C1CC1` [Example 107, (3R,4S)-3-cyclopropyl-4-methyl-1-(6-(1-methyl-3-(trifluoromethyl)-1H-pyrazol-5-yl)pyrrolo[1,2-b]pyridazin-4-yl)-2-oxopyrrolidine-3-carbonitrile trifluoroacetate], the concentration for half-maximal inhibition (IC50) in test [1] was in the range of 20 to 50 nM; in test [2], 1000 to 5000 nM; in test [3], 1000 to 5000 nM; in test [4], 1000 to 5000 nM.

For the molecule `C[C@@H]1CN(c2ccnn3cc(-c4nc5ccccn5n4)cc23)C(=O)[C@]1(C#N)C1CC1` [Example 108, (3R,4S)-1-(6-([1,2,4]triazolo[1,5-a]pyridin-2-yl)pyrrolo[1,2-b]pyridazin-4-yl)-3-cyclopropyl-4-methyl-2-oxopyrrolidine-3-carbonitrile trifluoroacetate], the IC50 in test [1] was 50 to 100 nM; in test [2], 1000 to 5000 nM; in test [3] it was greater than 10000 nM; in test [4], 1000 to 5000 nM.

For the molecule `Cc1ccc2nc(-c3cc4c(N5C[C@@H](C)[C@@](C#N)(C6CC6)C5=O)ccnn4c3)nn2c1` [Example 109, (3R,4S)-3-cyclopropyl-4-methyl-1-(6-(6-methyl-[1,2,4]triazolo[1,5-a]pyridin-2-yl)pyrrolo[1,2-b]pyridazin-4-yl)-2-oxopyrrolidine-3-carbonitrile trifluoroacetate], the half-inhibitory concentration (IC50) lay in the range of 50 to 100 nM in test [1], 1000 to 5000 nM in test [2], 5000 to 10000 nM in test [3] and 1000 to 5000 nM in test [4].

Turning to `Cc1csc(-c2cc3c(N4C[C@@H](C)[C@@](C#N)(C5CC5)C4=O)ccnn3c2)n1` [Example 113, (3R,4S)-3-cyclopropyl-4-methyl-1-(6-(4-methylthiazol-2-yl)pyrrolo[1,2-b]pyridazin-4-yl)-2-oxopyrrolidine-3-carbonitrile trifluoroacetate], the IC50 lay within 20 to 50 nM in test [1], 100 to 1000 nM in test [2], 1000 to 5000 nM in test [3] and 100 to 1000 nM in test [4].

As for `C[C@@H]1CN(c2ccnn3cc(-c4nc(C#N)cs4)cc23)C(=O)[C@]1(C#N)C1CC1` [Example 114, 2-(4-((3R,4S)-3-cyano-3-cyclopropyl-4-methyl-2-oxopyrrolidin-1-yl)pyrrolo[1,2-b]pyridazin-6-yl)thiazole-4-carbonitrile trifluoroacetate], the half-inhibitory concentration (IC50) in test [1] is 20 to 50 nM; in test [2], 1000 to 5000 nM; in test [3], greater than 10000 nM; in test [4], greater than 10000 nM.
